The source of these data is BindingDB's records for doi:10.1016/0960-894X(95)00556-9 (1996).

The nature of assay [1]: Compound was evaluated for its ability to displace [3H]-L-364,718 from Cholecystokinin type A receptor from rat pancreas.
A short description of assay [2]: Compound was evaluated for its ability to displace [3H]L-364718 from Cholecystokinin type A receptor from rat pancreas at dose of 0.03 umol/kg.

What is called IC50 is the concentration that gives 50% inhibition. With `CCC(C)(C)C(=O)CN1C(=O)C(NC(=O)Nc2cccc(C)c2)N=C(c2ccccc2)c2ccccc21` (stereo not drawn) [1-[1-(3,3-Dimethyl-2-oxo-pentyl)-2-oxo-5-phenyl-2,3-dihydro-1H-benzo[e][1,4]diazepin-3-yl]-3-m-tolyl-urea], the IC50 in assay [1] came to 0.72 µM.
Turning to `Cc1cccc(NC(=O)NC2N=C(c3ccccc3)c3ccccc3N(CC(=O)CC3CCCCC3)C2=O)c1` (stereo not drawn) [1-[1-(3-Cyclohexyl-2-oxo-propyl)-2-oxo-5-phenyl-2,3-dihydro-1H-benzo[e][1,4]diazepin-3-yl]-3-m-tolyl-urea], the IC50 in assay [1] was 0.48 µM. Compared with the last compound, the IC50 is about 1.5-fold lower.
Still for that read-out and setting: the value for `Cc1cccc(NC(=O)NC2N=C(c3ccccc3)c3ccccc3N(CC(=O)C(C)C)C2=O)c1` (stereo not drawn) [1-[1-(3-Methyl-2-oxo-butyl)-2-oxo-5-phenyl-2,3-dihydro-1H-benzo[e][1,4]diazepin-3-yl]-3-m-tolyl-urea] was 1.2 µM; that for `Cc1cccc(NC(=O)N[C@@H]2N=C(c3ccccc3)c3ccccc3N(CC(=O)C3CCCC3)C2=O)c1` [1-[(R)-1-(2-Cyclopentyl-2-oxo-ethyl)-2-oxo-5-phenyl-2,3-dihydro-1H-benzo[e][1,4]diazepin-3-yl]-3-m-tolyl-urea] was 0.44 µM.
Consider `Cc1cccc(NC(=O)N[C@@H]2N=C(c3ccccc3)c3ccccc3N(CC(=O)C(C)(C)C)C2=O)c1` [1-[(R)-1-(3,3-Dimethyl-2-oxo-butyl)-2-oxo-5-phenyl-2,3-dihydro-1H-benzo[e][1,4]diazepin-3-yl]-3-m-tolyl-urea], for which the IC50 in assay [2] amounted to 0.111 µM.
In assay [1], `Cc1cccc(NC(=O)N[C@H]2N=C(c3ccccc3)c3ccccc3N(CC(=O)C3CCCC3)C2=O)c1` [1-[(S)-1-(2-Cyclopentyl-2-oxo-ethyl)-2-oxo-5-phenyl-2,3-dihydro-1H-benzo[e][1,4]diazepin-3-yl]-3-m-tolyl-urea] registered an IC50 of 2.5 µM.
On the same count and under the same terms, the value for `Cc1cccc(NC(=O)NC2N=C(c3ccccc3)c3ccccc3N(CC(=O)C3(C)CCCCC3)C2=O)c1` (stereo not drawn) [1-{1-[2-(1-Methyl-cyclohexyl)-2-oxo-ethyl]-2-oxo-5-phenyl-2,3-dihydro-1H-benzo[e][1,4]diazepin-3-yl}-3-m-tolyl-urea] was more than 10 µM; that for `Cc1cccc(NC(=O)NC2N=C(c3ccccc3)c3ccccc3N(CC(=O)C3(C)CCCC3)C2=O)c1` (stereo not drawn) [1-{1-[2-(1-Methyl-cyclopentyl)-2-oxo-ethyl]-2-oxo-5-phenyl-2,3-dihydro-1H-benzo[e][1,4]diazepin-3-yl}-3-m-tolyl-urea] was 0.293 µM.
